# Biological target: human ERK-2 (Mitogen Activated Kinase 1) (Homo sapiens (Human), UniProt P28482)
# Test: ERK-2 Enzymatic Assay
# Assay type: biochemical
# Details: human ERK-2 enzyme 5 nM, 25 μM ATP, S/T17 peptide substrate; isomer = configuration of CR2R3
# Procedure: Compounds were tested in an enzymatic assay using human ERK-2 (Mitogen Activated Kinase 1), recombinantly expressed as an n-terminal 6-His fusion protein in E. coli and corresponding to aa 8-360. […] Test compounds were diluted in DMSO in 3-fold serial dilutions at 100× final concentrations. […] The data collected from each well was fit to a straight line, and the resulting rates were used to calculate percent of control. Percent of control was plotted against compound concentration, and IC50 values were determined using a four-parameter fit.
# Sequence of human ERK-2 (Mitogen Activated Kinase 1) (P28482 8-360): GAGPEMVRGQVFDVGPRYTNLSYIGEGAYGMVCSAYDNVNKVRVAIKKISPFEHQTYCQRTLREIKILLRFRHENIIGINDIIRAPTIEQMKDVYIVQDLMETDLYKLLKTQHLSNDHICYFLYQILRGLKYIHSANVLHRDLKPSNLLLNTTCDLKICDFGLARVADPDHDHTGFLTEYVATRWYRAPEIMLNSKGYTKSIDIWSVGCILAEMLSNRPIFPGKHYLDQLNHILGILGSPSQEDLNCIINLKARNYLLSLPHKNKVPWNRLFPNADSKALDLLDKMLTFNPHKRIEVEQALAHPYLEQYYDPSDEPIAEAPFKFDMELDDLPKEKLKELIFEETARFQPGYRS
row,Structure (SMILES),IC50
1,"CC(C)C[C@@H]1CNc2cc(-c3ccnc(Nc4ccnn4C)n3)cc3nnc1n23 [(R) I-10, 4-(3-isobutyl-4,5-dihydro-3H-1,2,2a^1,5-tetraazaacenaphthylen-7-yl)-N-(1-methyl-1H-pyrazol-5-yl)pyrimidin-2-amine]",2.75 nM
2,"CN1C[C@H](Cc2ccccc2)c2nnc3cc(-c4ccnc(Nc5ccnn5C)n4)cc1n23 [(S) I-9, 4-(3-benzyl-5-methyl-4,5-dihydro-3H-1,2,2a^1,5-tetraazaacenaphthylen-7-yl)-N-(1-methyl-1H-pyrazol-5-yl)pyrimidin-2-amine]",< 0.02 nM
3,"Cn1nccc1Nc1cc(-c2cc3n4c(nnc4c2)[C@@H](Cc2ccc(F)c(F)c2)CO3)ccn1 [(R) I-54, 4-(3-(3,4-difluorobenzyl)-3,4-dihydro-5-oxa-1,2,2a^1-triazaacenaphthylen-7-yl)-N-(1-methyl-1H-pyrazol-5-yl)pyridin-2-amine]",0.03 nM
4,"COc1cccc(CC2COc3cc(-c4ccnc(Nc5ccnn5C)n4)cc4nnc2n34)c1 (stereo not drawn) [Compound I-81, 4-(3-(3-methoxybenzyl)-3,4-dihydro-5-oxa-1,2,2a^1-triazaacenaphthylen-7-yl)-N-(1-methyl-1H-pyrazol-5-yl)pyrimidin-2-amine]",< 0.02 nM
5,"CN1C(=O)C[C@@H](Cc2ccc(Cl)cn2)c2nnc3cc(-c4ccnc(Nc5ccnn5C)c4)cc1n23 [Compound I-94, (R)-9-((5-chloropyridin-2-yl)methyl)-6-methyl-4-(2-((1-methyl-1H-pyrazol-5-yl)amino)pyridin-4-yl)-8,9-dihydro-1,2,2a^1,6-tetraazabenzo[cd]azulen-7(6H)-one]",598 nM
6,"Cn1nccc1Nc1nccc(-c2cc3n4c(nnc4c2)[C@@H](Cc2ccc(Cl)c(F)c2)CN3)n1 [(S) I-14, 4-(3-(4-chloro-3-fluorobenzyl)-4,5-dihydro-3H-1,2,2a^1,5-tetraazaacenaphthylen-7-yl)-N-(1-methyl-1H-pyrazol-5-yl)pyrimidin-2-amine]",< 0.02 nM
7,"COc1ccc(C[C@@H]2CC(=O)N(C)c3cc(-c4ccnc(Nc5ccnn5C)n4)cc4nnc2n34)c(F)c1 [(R) I-85, 9-(2-fluoro-4-methoxybenzyl)-6-methyl-4-(2-((1-methyl-1H-pyrazol-5-yl)amino)pyrimidin-4-yl)-8,9-dihydro-1,2,2a^1,6-tetraazabenzo[cd]azulen-7(6H)-one]",< 0.02 nM
8,"CC(C)C[C@@H]1c2nnc3cc(-c4ccnc(Nc5ccnn5C)n4)cc(n23)NC(=O)N1C [Compound I-23, (R)-9-isobutyl-8-methyl-4-(2-((1-methyl-1H-pyrazol-5-yl)amino)pyrimidin-4-yl)-8,9-dihydro-1,2,2a^1,6,8-pentaazabenzo[cd]azulen-7(6H)-one]",1.12 nM
9,"COc1ccc(C[C@@H]2CNc3cc(-c4ccnc(Nc5ccnn5C)n4)cc4nnc2n34)cc1 [(R) I-11, 4-(3-(4-methoxybenzyl)-4,5-dihydro-3H-1,2,2a^1,5-tetraazaacenaphthylen-7-yl)-N-(1-methyl-1H-pyrazol-5-yl)pyrimidin-2-amine]",0.514 nM
10,"COc1ccc(C[C@@H]2COc3cc(-c4ccnc(Nc5ccnn5C)n4)cc4nnc2n34)cc1F [(S) I-46, 4-(3-(3-fluoro-4-methoxybenzyl)-3,4-dihydro-5-oxa-1,2,2a^1-triazaacenaphthylen-7-yl)-N-(1-methyl-1H-pyrazol-5-yl)pyrimidin-2-amine]",2.47 nM
11,"CC(C)[C@@H]1CC(=O)N(C)c2cc(-c3ccnc(Nc4ccnn4C)c3)cc3nnc1n23 [(S) I-87, 9-isopropyl-6-methyl-4-(2-((1-methyl-1H-pyrazol-5-yl)amino)pyridin-4-yl)-8,9-dihydro-1,2,2a^1,6-tetraazabenzo[cd]azulen-7(6H)-one]",1000 nM
12,"Cn1nccc1Nc1cc(-c2cc3n4c(nnc4c2)[C@H](Cc2ccc(F)c(F)c2)CO3)ccn1 [(S) I-54, 4-(3-(3,4-difluorobenzyl)-3,4-dihydro-5-oxa-1,2,2a^1-triazaacenaphthylen-7-yl)-N-(1-methyl-1H-pyrazol-5-yl)pyridin-2-amine]",22.3 nM
13,"Cn1nccc1Nc1nccc(-c2cc3n4c(nnc4c2)[C@@H](Cc2ccc(F)cc2)CCO3)n1 [(S) I-58, 4-(9-(4-fluorobenzyl)-8,9-dihydro-7H-6-oxa-1,2,2a^1-triazabenzo[cd]azulen-4-yl)-N-(1-methyl-1H-pyrazol-5-yl)pyrimidin-2-amine]",0.311 nM
14,"Cn1nccc1Nc1nccc(-c2cc3n4c(nnc4c2)C(Oc2ccc(F)cc2)CCO3)n1 [(R) I-108, 4-(9-(4-fluorophenoxy)-8,9-dihydro-7H-6-oxa-1,2,2a^1-triazabenzo[cd]azulen-4-yl)-N-(1-methyl-1H-pyrazol-5-yl)pyrimidin-2-amine]",2.95 nM
15,"COc1ccc(C[C@@H]2CNc3cc(-c4ccnc(Nc5ccnn5C)n4)cc4nnc2n34)cn1 [(R) I-24, 4-(3-((6-methoxypyridin-3-yl)methyl)-4,5-dihydro-3H-1,2,2a^1,5-tetraazaacenaphthylen-7-yl)-N-(1-methyl-1H-pyrazol-5-yl)pyrimidin-2-amine]",1.85 nM
16,"Cn1nccc1Nc1nccc(-c2cc3n4c(nnc4c2)[C@@H](Oc2ccc(F)c(F)c2)CCO3)n1 [(S) I-111, 4-(9-(3,4-difluorophenoxy)-8,9-dihydro-7H-6-oxa-1,2,2a^1-triazabenzo[cd]azulen-4-yl)-N-(1-methyl-1H-pyrazol-5-yl)pyrimidin-2-amine]",< 0.02 nM
17,"COc1ccc(C[C@@H]2COc3cc(-c4ccnc(Nc5ccnn5C)n4)cc4nnc2n34)cc1 [(S) I-50, 4-(3-(4-methoxybenzyl)-3,4-dihydro-5-oxa-1,2,2a^1-triazaacenaphthylen-7-yl)-N-(1-methyl-1H-pyrazol-5-yl)pyrimidin-2-amine]",7.12 nM
18,"CN1C(=O)N(Cc2ccccc2)c2nnc3cc(-c4ccnc(Nc5ccnn5C)n4)cc1n23 [Compound I-28, 3-benzyl-5-methyl-7-(2-((1-methyl-1H-pyrazol-5-yl)amino)pyrimidin-4-yl)-3H-1,2,2a^1,3,5-pentaazaacenaphthylen-4(5H)-one]",0.02 nM
19,"COc1ccc(C[C@H]2CNc3cc(-c4ccnc(Nc5ccnn5C)n4)cc4nnc2n34)cc1 [(S) I-11, 4-(3-(4-methoxybenzyl)-4,5-dihydro-3H-1,2,2a^1,5-tetraazaacenaphthylen-7-yl)-N-(1-methyl-1H-pyrazol-5-yl)pyrimidin-2-amine]",< 0.02 nM
20,"CN1C[C@H](Cc2ccc(F)cc2)c2nnc3cc(-c4ccnc(Nc5ccnn5C)n4)cc1n23 [(S) I-31, 4-(3-(4-fluorobenzyl)-5-methyl-4,5-dihydro-3H-1,2,2a^1,5-tetraazaacenaphthylen-7-yl)-N-(1-methyl-1H-pyrazol-5-yl)pyrimidin-2-amine]",< 0.02 nM
21,"CN1C(=O)C[C@@H](CC(F)(F)F)c2nnc3cc(-c4ccnc(Nc5ccnn5C)n4)cc1n23 [(S) I-71, 6-methyl-4-(2-((1-methyl-1H-pyrazol-5-yl)amino)pyrimidin-4-yl)-9-(2,2,2-trifluoroethyl)-8,9-dihydro-1,2,2a^1,6-tetraazabenzo[cd]azulen-7(6H)-one]",189 nM
22,"Cn1nccc1Nc1cc(-c2cc3n4c(nnc4c2)[C@H](Cc2ccccc2)CN3)ccn1 [(R) I-7, 4-(3-benzyl-4,5-dihydro-3H-1,2,2a^1,5-tetraazaacenaphthylen-7-yl)-N-(1-methyl-1H-pyrazol-5-yl)pyridin-2-amine]",0.707 nM
23,"Cn1nccc1Nc1nccc(-c2cc3n4c(nnc4c2)[C@H](Oc2ccccc2)CCO3)n1 [(R) I-90, N-(1-methyl-1H-pyrazol-5-yl)-4-(9-phenoxy-8,9-dihydro-7H-6-oxa-1,2,2a^1-triazabenzo[cd]azulen-4-yl)pyrimidin-2-amine]",0.942 nM
24,"CCC[C@H]1CCOc2cc(-c3ccnc(Nc4ccnn4C)c3)cc3nnc1n23 [(S) I-103, N-(1-methyl-1H-pyrazol-5-yl)-4-(9-propyl-8,9-dihydro-7H-6-oxa-1,2,2a^1-triazabenzo[cd]azulen-4-yl)pyridin-2-amine]",0.026 nM
25,"CN1C(=O)C[C@@H](C2CC2)c2nnc3cc(-c4ccnc(Nc5ccnn5C)n4)cc1n23 [(S) I-65, 9-cyclopropyl-6-methyl-4-(2-((1-methyl-1H-pyrazol-5-yl)amino)pyrimidin-4-yl)-8,9-dihydro-1,2,2a^1,6-tetraazabenzo[cd]azulen-7(6H)-one]",119 nM
26,"Cn1nccc1Nc1nccc(-c2cc3n4c(nnc4c2)[C@H](Cn2cc(Cl)cn2)CCO3)n1 [(S) I-42, (S)-4-(9-((4-Chloro-1H-pyrazol-1-yl)methyl)-8,9-dihydro-7H-6-oxa-1,2,2a^1-triazabenzo[cd]azulen-4-yl)-N-(1-methyl-1H-pyrazol-5-yl)pyrimidin-2-amine]",0.131 nM
27,"Cn1nccc1Nc1nccc(-c2cc3n4c(nnc4c2)[C@@H](Cn2cc(C4CC4)cn2)CCO3)n1 [(R) I-56, 4-(9-((4-cyclopropyl-1H-pyrazol-1-yl)methyl)-8,9-dihydro-7H-6-oxa-1,2,2a^1-triazabenzo[cd]azulen-4-yl)-N-(1-methyl-1H-pyrazol-5-yl)pyrimidin-2-amine]",< 0.02 nM
28,"COc1ncccc1C[C@H]1CN(C)c2cc(-c3ccnc(Nc4ccnn4C)n3)cc3nnc1n23 [(S) I-43, 4-(3-((2-methoxypyridin-3-yl)methyl)-5-methyl-4,5-dihydro-3H-1,2,2a^1,5-tetraazaacenaphthylen-7-yl)-N-(1-methyl-1H-pyrazol-5-yl)pyrimidin-2-amine]",1.33 nM
29,"Cn1nccc1Nc1cc(-c2cc3n4c(nnc4c2)[C@H](Cn2cc(C(F)(F)F)cn2)CCO3)ccn1 [(S) I-89, N-(1-methyl-1H-pyrazol-5-yl)-4-(9-((4-(trifluoromethyl)-1H-pyrazol-1-yl)methyl)-8,9-dihydro-7H-6-oxa-1,2,2a^1-triazabenzo[cd]azulen-4-yl)pyridin-2-amine]",2.31 nM
30,"Cn1nccc1Nc1cc(-c2cc3n4c(nnc4c2)[C@H](Oc2cncc(Cl)c2)CCO3)ccn1 [(R) I-78, 4-(9-((5-chloropyridin-3-yl)oxy)-8,9-dihydro-7H-6-oxa-1,2,2a^1-triazabenzo[cd]azulen-4-yl)-N-(1-methyl-1H-pyrazol-5-yl)pyridin-2-amine]",4.61 nM
